Values of other authors as cited in patent US8645075B2, “Method for predicting organ toxicity and a system thereof” (Strand Life Sciences PVT Ltd., priority 2008, dated 2014).
Read-outs that look alike come from different tables or passages of the source.

How the values were obtained:
[1] = molecular target: T1, CPT1 (Homo sapiens, UniProt P50416)
T1 sequence (P50416 1-773): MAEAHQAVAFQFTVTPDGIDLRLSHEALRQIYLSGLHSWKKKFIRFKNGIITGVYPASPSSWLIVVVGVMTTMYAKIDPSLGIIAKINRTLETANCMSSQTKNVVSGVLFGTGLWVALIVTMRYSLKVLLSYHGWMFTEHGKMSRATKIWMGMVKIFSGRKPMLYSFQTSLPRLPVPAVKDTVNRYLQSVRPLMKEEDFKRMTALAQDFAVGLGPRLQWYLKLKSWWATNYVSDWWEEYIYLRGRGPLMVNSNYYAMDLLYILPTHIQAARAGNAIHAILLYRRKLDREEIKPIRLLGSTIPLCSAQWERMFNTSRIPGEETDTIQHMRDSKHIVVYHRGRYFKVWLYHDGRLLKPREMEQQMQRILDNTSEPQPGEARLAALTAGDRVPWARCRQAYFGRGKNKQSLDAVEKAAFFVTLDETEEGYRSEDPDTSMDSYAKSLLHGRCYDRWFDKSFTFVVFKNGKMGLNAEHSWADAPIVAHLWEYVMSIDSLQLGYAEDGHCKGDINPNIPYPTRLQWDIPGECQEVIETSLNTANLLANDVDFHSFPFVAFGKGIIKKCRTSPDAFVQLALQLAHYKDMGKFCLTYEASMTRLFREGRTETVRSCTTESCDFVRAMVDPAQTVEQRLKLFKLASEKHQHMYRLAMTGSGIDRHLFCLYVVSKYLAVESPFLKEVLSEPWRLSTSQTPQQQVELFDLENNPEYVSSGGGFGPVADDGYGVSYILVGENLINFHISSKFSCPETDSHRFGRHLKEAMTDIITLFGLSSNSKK

[2] = system: FoF1 ATPase; conditions: experimental value used for model validation

CCCCc1oc2ccccc2c1C(=O)c1cc(I)c(OCCN(CC)CC)c(I)c1 [Amiodarone]
Triglyceride accumulation, Experiment ([1]; experimental value used for model validation): 150%

C=C(C)[C@]12C[C@@H](C)[C@@]34O[C@](c5ccccc5)(O[C@@H]1[C@@H]3[C@@H]1O[C@]1(CO)[C@@H](O)[C@]1(O)C(=O)C(C)=C[C@H]14)O2 [Daphnetoxin]
EC value (Energy Charge), Experiment [2]: 0.52

C1CCC(C(CC2CCCCN2)C2CCCCC2)CC1 (stereo not drawn) [Perhexilline]
Triglyceride accumulation, Experiment [1]: 98%
